{"source": "patent US20130160151A1", "about": "“TRANSGENIC ANIMAL AS A MODEL FOR IDENTIFYING ADULT STEM CELLS, AND USES THEREOF” (Universite Pierre et Marie Curie (PARIS 6), priority 2010, published 2013)", "key": {"skin stem cells": {"system": "skin stem cells", "assay": "Screening feasibility: number of blue clones per well of skin stem cells treated with factors", "type": "cell-based, mouse", "conditions": "skin stem cells from 7 week-old Pw1nlacZ mice, 2 cells/μl, factors added after 3 days in culture, a week treatment, duplicates", "method": "FIG. 9 is a graph showing the number of clones of skin stem cells after a week treatment with various factors (EGF, BMP2, BMP4, Activin A).\nFluorescence-activated cell sorting has been performed, dorsal skin from 7 week-old Pw1^nlacZ mice (n=3-5) were collected and cell preparation was obtained. For detection of nuclear β-galactosidase activity, a fluorescein di-β-D-galactopyranoside (FDG) staining kit (Invitrogen) was used according to manufacturer's instructions. Cells were then plated on 24 or 96 wells at density of 2 cells/μl. The cells were treated with 4 different factors after 3 days in culture: • EGF, Human recombinant protein from R&D system • BMP2, Human recombinant protein from Humanzyme • BMP4, Human recombinant protein from Humanzyme • Activin A, Human recombinant protein from Humanzyme\nThe analysis of the effect of different factors has been done using a simple readout: counting the number of blue clones per well. […] This experiment has been done in duplicates."}, "β-gal positive cells": {"system": "β-gal positive cells", "assay": "In vitro culture of FAC-sorted blue (β-gal positive) cells with or without EGF", "type": "cell-based", "conditions": "medium containing EGF vs without EGF; FAC-sorted blue cells of the transgenic mouse", "method": "FIGS. 6A and 6B show in vitro culture of β-gal positive cells after FAC sorting in absence (6A) or in presence (6B) of EGF.\nThe inventors isolated cells from a transgenic mouse as obtained in Example 1, and isolated them by FAC sorting. Only the blue cells were cultured in vitro.\nThen for proof of concept, the cells were contacted with human recombinant EGF or without EGF. The growth factor was tested for its ability to keep the cells blue over time."}}, "note": "“Also recorded” adds a separate entry of the source.", "data": [{"substance": "EGF: Human recombinant protein from R&D system", "values": [{"measurement": "number of blue clones per well (cell growth)", "setting": "skin stem cells", "value": "allows the cells to grow"}, {"measurement": "number of blue cells per clone", "setting": "β-gal positive cells", "value": "greater; also recorded: higher"}, {"measurement": "number of blue clones", "setting": "β-gal positive cells", "value": "greater; also recorded: higher"}]}]}
